The text below walks through data of patent US20240076327A1 (priority 2020, published 2024).

For data set [1] the following is noted: buffer, 0 h, pH 9.
Another data set in a line: physchem. Particulars: buffer, pH 9.

Where a SMILES comes first, the peptide text is derived from it. Bridges are numbered along the chain shown (N, C = ends). Where no end group is shown, it is not given here.

For the compound `CC[C@H](C)[C@H](NC(=O)[C@H](C)N)C(=O)N[C@H]1CSSC[C@@H]2NC(=O)[C@@H]3CSSC[C@@H](C(=O)N[C@@H](CCCNC(=N)N)C(=O)N[C@@H](CCCCN)C(=O)N[C@@H](CC(=O)O)C(=O)N[C@@H](CCC(=O)O)C(=O)N4CCC[C@H]4C(=O)O)NC(=O)[C@H](Cc4ccc(O)cc4)NC(=O)[C@H](CO)NC(=O)[C@H](C(C)C)NC(=O)CNC(=O)[C@H](CC(N)=O)NC(=O)[C@H](CO)NC(=O)[C@H](CCC(=O)O)NC(=O)[C@H](C)NC(=O)[C@H](CCCCN)NC(=O)[C@H](CSSC[C@H](NC(=O)[C@@H]4CCCN4C(=O)[C@H](CCCNC(=N)N)NC(=O)[C@H](CC(=O)O)NC(=O)[C@H](C)NC(=O)CNC(=O)[C@H]([C@@H](C)O)NC1=O)C(=O)N[C@@H](C)C(=O)N[C@@H](C)C(=O)N[C@H]1CSSC[C@H](NC1=O)C(=O)N1CCC[C@H]1C(=O)N3)NC(=O)[C@H](CO)NC(=O)[C@H]([C@@H](C)O)NC(=O)CNC(=O)[C@@H]1CCCN1C2=O` [κ-hexatoxin-Hv1c] (H-AICTGADRPCAACCPCCPGTSCKAESNGVSYCRKDEP-OH; disulfide 3-17, 10-22, 13-14, 16-32), the “observed overall stability (percentage of remaining parent peak)” value in data set [1] worked out at 100%. In the data set “physchem”, this compound came in with a share remaining at 24 h of 91%, a fraction remaining at 48 h of 80%, a share remaining at 72 h of 75% and a share remaining at 96 h of 61%. Also, in the data set “physchem”, the amount remaining at 120 h was 51%, the share remaining at 144 h was 41%, the amount remaining at 168 h is 30% and the fraction remaining at 360 h amounted to 9%.

“GSQYCVPVDQPCSLNTQPCCDDATCTQERNENGHTVYYCRA (disulfide 5-20, 12-25, 19-39) [GS-ω/κ-hexatoxin-Hv1h]”: the “observed overall stability (percentage of remaining parent peak)” value in data set [1] amounted to 100%. In “physchem”, the amount remaining at 24 h was determined as 94%, the fraction remaining at 48 h is 91%, the fraction remaining at 72 h worked out at 82% and the amount remaining at 96 h was found to be 83%. In “physchem”, this compound registered a fraction remaining at 120 h of 83%, an amount remaining at 144 h of 81%, a share remaining at 168 h of 69% and an amount remaining at 360 h of 50%.
